Laboratory results published in patent publication US20200000825A1, “METHODS AND COMPOSITIONS FOR TREATING AND PREVENTING VIRAL INFECTIONS” (ENTERIN LABORATORIES, INC., priority 2009, published 2020).
pIC50: −log10 of the molar value. Read-outs that look alike come from different tables or passages of the source.

Tests used:
[1] = cited from earlier work
[2] = cited from earlier work; remark: listed apart in the source
[3] = test system: human Hepatitis Delta virus; assay: Hepatitis Delta virus replication in primary human hepatocytes, PCR (Example 13); assay type: cell-based
Procedure: Primary human hepatocytes were established in a 96 well microtiter plate. Squalamine was then added at concentrations of 20 or 60 μg/ml followed by an inoculum of Hep D virus, and then in culture for 3 hours, after which fresh medium was introduced, and the cells maintained in culture for 7 days. Viral growth was measured by PCR using viral specific primers and normalized to the total RNA extracted from each corresponding well.

[4] = test system: human immunodeficiency virus (HIV)
[5] = test system: Human umbilical endothelial cells; assay: Kinetics of uptake of 3H-labelled aminosterol into endothelial cells; conditions: for Uptake into endothelial cells: 1 μg/ml 3H-aminosterol
RAW264.7 cell line = conditions: squalamine 80 μM, 30 minutes; cited from earlier work
Yellow Fever [6] = assay type: in vivo, Syrian hamsters
[7] = test system: Eastern Equine Encephalitis Virus; assay type: in vivo, hamsters (Syrian golden); conditions: 10 mg/kg/day s.c.
[8] = test system: murine cytomegalovirus (MCMV); assay type: in vivo, Balb/c mice
Yellow Fever [9] = assay type: in vivo, Syrian hamsters; conditions: squalamine 15 mg/kg/d s.c. qd, -24 h to 6 dpi
Human Oct 1 = biological target: T1, Human Oct 1 (Homo sapiens, UniProt O15245); assay: MPP uptake inhibition (transport competition) assay in CHO cells over-expressing a human Oct transporter; assay type: cell-based
T1 sequence (O15245 1-554): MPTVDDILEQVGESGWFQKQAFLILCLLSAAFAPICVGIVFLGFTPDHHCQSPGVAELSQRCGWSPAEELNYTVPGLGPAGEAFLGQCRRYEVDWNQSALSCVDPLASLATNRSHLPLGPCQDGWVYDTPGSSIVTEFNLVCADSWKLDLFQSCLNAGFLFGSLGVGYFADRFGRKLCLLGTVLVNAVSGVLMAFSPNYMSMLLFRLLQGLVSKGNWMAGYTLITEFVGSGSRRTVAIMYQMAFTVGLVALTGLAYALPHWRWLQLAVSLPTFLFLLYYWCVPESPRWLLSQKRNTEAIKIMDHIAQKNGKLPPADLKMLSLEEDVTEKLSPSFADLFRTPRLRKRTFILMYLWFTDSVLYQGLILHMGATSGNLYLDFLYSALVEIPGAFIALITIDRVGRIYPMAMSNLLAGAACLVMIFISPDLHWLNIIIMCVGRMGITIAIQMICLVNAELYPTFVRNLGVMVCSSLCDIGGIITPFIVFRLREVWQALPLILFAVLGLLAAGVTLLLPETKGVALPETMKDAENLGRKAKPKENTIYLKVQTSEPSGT
Procedure: (§1) This example determines whether squalamine is a substrate for the organic cation transporter (Oct). This determination employed a standard transport competition assay, described in the literature (Lips, Volk et al. 2005).
(§2) Chinese hamster ovary cells, previously engineered to over-express a specific human Oct transporter were used in the assay. In this example, the effect of a specific concentration of an amino sterol is determined on the intracellular uptake of radiolabelled 1-methyl-4-phenylpyridine (MPP) (at 0.01 μM), measured after a 1-second exposure. […] IC50 refers to the concentration of squalamine or 1436 required to inhibit MPP uptake by 50%. Table 1 below describes the affinity of squalamine and Amino sterol 1436 for human organic cation transporters (Human Oct 1, Human Oct 2, and Human Oct 3) based upon the MPP uptake inhibition assay.

Human Oct 2 = biological target: T2, Human Oct 2 (Homo sapiens, UniProt O15244); assay: as above; assay type: cell-based
T2 sequence (O15244 1-555): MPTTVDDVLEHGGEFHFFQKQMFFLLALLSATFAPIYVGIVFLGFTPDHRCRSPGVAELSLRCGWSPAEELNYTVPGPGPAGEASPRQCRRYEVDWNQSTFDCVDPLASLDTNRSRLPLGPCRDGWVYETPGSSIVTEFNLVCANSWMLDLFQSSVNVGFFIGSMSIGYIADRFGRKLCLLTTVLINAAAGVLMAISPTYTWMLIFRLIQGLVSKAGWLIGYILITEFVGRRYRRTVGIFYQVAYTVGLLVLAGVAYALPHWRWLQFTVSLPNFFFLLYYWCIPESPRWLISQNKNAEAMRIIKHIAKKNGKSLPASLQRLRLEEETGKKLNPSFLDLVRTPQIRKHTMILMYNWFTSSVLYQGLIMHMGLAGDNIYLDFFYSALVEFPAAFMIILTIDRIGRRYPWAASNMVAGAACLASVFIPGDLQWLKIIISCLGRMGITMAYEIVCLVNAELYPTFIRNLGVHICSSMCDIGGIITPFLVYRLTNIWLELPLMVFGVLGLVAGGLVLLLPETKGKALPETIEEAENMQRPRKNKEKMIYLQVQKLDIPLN
Procedure: as §1, §2

[10] = 500 mg/m(2)/day, 5-day continuous i.v. infusion
[11] = mouse, in vivo, ip, 10 mg/kg/day
[12] = 100 μM aminosterol, radiolabelled MPP 0.01 μM, 1-second exposure
[13] = read-out: IC50 (concentration required to inhibit MPP uptake by 50%)

For CC(C)[C@@H](CC[C@@H](C)[C@H]1CC[C@H]2[C@@H]3[C@H](O)C[C@H]4C[C@@H](NCCCNCCCCN)CC[C@]4(C)[C@H]3CC[C@]12C)OS(=O)(=O)O [Squalamine, squalamine], the Mean clearance [1, 10] is listed as 2.67 liters/h/m(2), the Mean half-life [1, 10] is listed as 9.46 h and the “Mean volume of distribution” value [1, 10] is listed as 36.84 liters/m(2). For the same compound, the Steady-state concentrations [1, 10] was 20.08 micro g/ml, the “Patients with dose-limiting grade 4 hyperbilirubinemia and grade 3 neurosensory changes” value ([1]; 500 mg/m(2)/day) was “one of seven” and the Tolerability ([1]; 500 mg/m(2)/day) was “well tolerated”. The “Patients who developed grade 4 hyperbilirubinemia” value ([1]; 700 mg/m(2)/day) was “two of three”, the “Dose dependence of pharmacokinetics” value ([1]; 6 to 700 mg/m(2)/day) was “dose-proportional” and the “Patients with dose-limiting toxicity (grade 3/4 arthralgia, myalgia, neutropenia)” value ([2]; 400 mg/m(2)/day with paclitaxel and carboplatin) was “two of three”. For the same compound, the “Tolerability of the combination” value ([2]; continuous daily for 5 days, with paclitaxel and carboplatin on day 1) was “well tolerated”, the “Inhibition of viral production” value ([3]; 20 μg/ml, added during initial stages of infection) was 90% and the Cytotoxicity in vitro ([3]; 60 μg/ml, primary human hepatocytes) was “cytotoxic”. For the same compound, the “Inhibition of HIV infection” value [4] was “about 50%”, the “Toxicity towards the HeLa cells” value ([4]; 30 μg/ml) was “no evidence of toxicity” and the “Uptake into endothelial cells” value ([5]; 5 min) was 250 Molecules/cell (×10^−6). For the same compound, the “Uptake into endothelial cells” value ([5]; 30 min) was 400 Molecules/cell (×10^−6), the “Uptake into endothelial cells” value ([5]; 60 min) was 500 Molecules/cell (×10^−6) and the “Uptake into endothelial cells” value ([5]; 120 min) was 500 Molecules/cell (×10^−6). The “Uptake into endothelial cells” value ([5]; 180 min) was 600 Molecules/cell (×10^−6), the “Entry into the HUVEC relative to Aminosterol 1436” value ([5]; squalamine versus Aminosterol 1436) was “over 2 orders of magnitude” and the “Localization of Lact-C2 probe” value (RAW264.7 cell line) was “did not alter the localization”. The “Localization of R-pre probe” value (RAW264.7 cell line) was “displaced from its residence on the plasma membrane”, the “Animals cured (survival through day 21)” value (Yellow Fever [6]; squalamine 15 mg/kg/day s.c. from 1 dpi to 8 dpi) was 60% and the “Animals cured (survival through day 21)” value (Yellow Fever [6]; squalamine 30 mg/kg/day s.c. from 1 dpi to 8 dpi) was 60%. The “Animals cured (survival through day 21)” value (Yellow Fever [6]; squalamine 30 mg/kg/day s.c. from 2 dpi to 9 dpi) was 40%, the “Hamsters still alive at the end of treatment” value ([7]; -24 h to 6 days after infection) was 6/10 and the “Plasma concentration of virus, lower than vehicle” value ([7]; first 3 days post infection) was “about 100 fold”. For the same compound, the “Viral titers in lung versus control” value ([8]; 10 mg/kg/day i.p.) was “trend toward reduction”, the “Viral titers versus control cohort” value ([8]; day 7, spleen and liver, 10 mg/kg/day s.c. and i.p. groups) was “significantly lower” and the “Viral titers, difference between groups” value ([8]; days 3 to 7, lungs and salivary glands) was “no significant differences”. For the same compound, the “Effect on viral growth” value [8, 11] was “little effect”, the “Reduction in viral growth” value [8, 11] was “greater than 10 fold” and the “Virus in liver and spleen” value [8, 11] was “undetectable”. For the same compound, the “Virus in liver and spleen versus controls” value ([8]; mouse, in vivo, sc, 10 mg/kg/day) was “significantly reduced”, the Survival (Yellow Fever [9]) was 70% and the “% Inhibition of MPP uptake caused by 100 μM” value (Human Oct 1; [12]) was 25%. For the same compound, the pIC50 (Human Oct 1; [13]) was 4.47, the “% Inhibition of MPP uptake caused by 100 μM” value (Human Oct 2; [12]) was 40% and the pIC50 (Human Oct 2; [13]) was 4.30.
